This is an account of results in patent publication US5045543A, “5-amino or substituted amino 1,2,3-triazoles useful as antimetastatic agents” (Merck & Co., Inc., priority 1989, dated 1991).

≈ marks a conversion by molar mass, not a printed value.

In data set [1] the test system is PAPp26 Murine Keratinocytes. The note with it: proliferation assay.
Protocol: In these experiments Murine keratinocyte transformed cell line PAPp26 was cultured in Dulbecco's modified Eagle's medium with 10% fetal calf serum at 37° C., 5% CO2. Each well of a 96 well plate was seeded with 2000 cells in 200 μl of each drug dilution in duplicate. A plate was stopped and fixed for each time point, stained with Giemsa and then read in a Titertek plate reader at 650 nm, and the absorbances were calibrated with known cell numbers on control plates.
Data set [2] deals with pig skin epidermal basal cells (keratinocytes). The data set is described as follows: UV induced hyperproliferation in pig skin in vivo (topical antiproliferative activity). As to the method:
The topical antiproliferative activities, along with in vitro antiproliferative activities against human keratinocytes and fibroblasts, provide the biological data in support of the claimed utility:
In one experiment, a 20 kg pig was sedated and multiple areas of clipped skin were exposed to uv radiation sufficient to provoke a moderate hyperproliferative response within several days of exposure. On days 0, 1, 2 and 3 replicate irradiated sites were treated topically with Compound A in several vehicles or solvents. Topical preparations included a 2% drug in Gel #1, a combination of isopropyl myristate:Crodamol:ethanol, 1:1:2, or DMSO. The hyperproliferative response of the skin to uv was assessed on day 4 by injecting ^3 H-thymidine intradermally, and, 1 hour later, removing the sites by punch biopsy and processing the samples for autoradiography. Such autoradiographs indicate the number of epidermal cells in S phase synthesizing DNA and this is a common tool used by dermatologists to assess inhibition of proliferation in vivo. A single injection of methotrexate, 4 hours prior to ^3 H-thymidine injection was used as a positive control for inhibition of DNA synthesis. A labelling index, L.I., which is the percent of the total number of epidermal basal cells (keratinocytes) counted showing label incorporation. Four days after exposure to uv, the L.I. of pig skin increased from 7.6% to 20.8% (normal human skin ca. 2%, psoriatic lesions ca. 25%, for comparison).

For data set [3], the system named is psoriasis. The note with it: cited from earlier work; for side effects in psoriasis treatment: in vivo; for efficacy in psoriasis: mycophenolic acid given orally; for clearing of psoriatic lesions: used experimentally.

In data set [1], `NC(=O)c1nnn(Cc2cc(Cl)c(C(=O)c3ccc(Cl)cc3)c(Cl)c2)c1N` [(B)] registered an ED50 PAPp26 of 2 µg/mL (≈ 4.71 µM). On the same count and under the same terms, then `NC(=O)c1nnn(Cc2ccc(Sc3ccc(Cl)cc3)c(Cl)c2)c1N` [(C)], with 1 to 2 µg/mL (≈ 2.54 to 5.07 µM); and `NC(=O)c1nnn(Cc2ccc(Sc3ccc(Cl)cc3)c(C(F)(F)F)c2)c1N` [(D)], with 1 to 2 µg/mL (≈ 2.34 to 4.67 µM); and `Cc1cc(Cn2nnc(C(N)=O)c2N)cc(Cl)c1C(=O)c1ccc(C(F)(F)F)cc1` [(E)], with 2 µg/mL (≈ 4.57 µM). On the same count and under the same terms, under `N#Cc1ccc(C(=O)c2c(Cl)cc(Cn3nnc(C(N)=O)c3N)cc2Cl)cc1` [(F)] stands 2 µg/mL (≈ 4.82 µM). As to `NC(=O)c1nnn(Cc2cc(Cl)c(C(=O)c3ccc(Cl)cc3)c(Br)c2)c1N` [(G)], the ED50 PAPp26 in data set [1] is 2 µg/mL (≈ 4.26 µM). Same read-out and setting: then `NC(=O)c1nnn(Cc2cc(Cl)c(Oc3ccc(Br)cc3)c(Cl)c2)c1N` [(H)], with 1 to 2 µg/mL (≈ 2.19 to 4.38 µM).

In turn, `NC(=O)c1nnn(Cc2cc(Cl)c(C(=O)c3ccc(Br)cc3)c(Cl)c2)c1N` [(J)] showed an ED50 PAPp26 in data set [1] of 1 to 2 µg/mL (≈ 2.13 to 4.26 µM). On the same count and under the same terms, then `NC(=O)c1nnn(Cc2cc(Cl)c(Oc3ccc([N+](=O)[O-])cc3)c(Cl)c2)c1N` [(K)], with 2 µg/mL (≈ 4.73 µM); and `Cc1cc(Cn2nnc(C(N)=O)c2N)cc(Cl)c1Oc1ccc(Cl)cc1` [(L)], with 2 µg/mL (≈ 5.1 µM). With `CN(Cc1cnc2nc(N)nc(N)c2n1)c1ccc(C(=O)N[C@@H](CCC(=O)O)C(=O)O)cc1` [Methotrexate, methotrexate, reference compound], in data set [2] (i.d. injection), the “UV induced hyperproliferation, % Inhibition” value turned out to be 93%. The “Labelled Cells” value in data set [2] (i.d., single injection 4 hours prior to 3H-thymidine, of 1175 basal cells counted) was determined as 100. The “LI (labelling index)” value in data set [2] (i.d., uv exposed Gel #1 control 20.8, normal 7.6) amounted to 8.5%. Further, in data set [3], the “side effects in psoriasis treatment” value was “unacceptable side effects due to toxicity” and the efficacy in psoriasis result is on record as “effective in treating the disease”. As for `COc1c(C)c2c(c(O)c1C/C=C(\C)CCC(=O)O)C(=O)OC2` [Mycophenolic acid], in data set [3], the “side effects in psoriasis treatment” value is “unacceptable side effects”, the efficacy in psoriasis entry was “controls psoriasis by causing remission when given orally” and the “clearing of psoriatic lesions” value is given as “success in clearing lesions”. Regarding `O=C(O)C[C@H](NC(=O)CP(=O)(O)O)C(=O)O` [N-phosphonacetyl-L-aspartate], in data set [3], the “side effects in psoriasis treatment” value was “unacceptable side effects due to toxicity” and the efficacy in psoriasis result is listed as “effective in treating the disease”.

As to `O=c1[nH]cc(F)c(=O)[nH]1` [fluorouracil], in data set [3], the “side effects in psoriasis treatment” value is reported as “unacceptable side effects due to toxicity” and the efficacy in psoriasis result is listed as “effective in treating the disease”.

For the compound `Nc1nc2nc[nH]c2c(=S)[nH]1` [thioguanine], in data set [3], the “side effects in psoriasis treatment” value is reported as “unacceptable side effects due to toxicity”, the efficacy in psoriasis result is “effective in treating the disease” and the “clearing of psoriatic lesions” value was “success in clearing lesions”.
